Reference: patent US10441689B2, “Methods and devices for three-dimensional printing or additive manufacturing of bioactive medical devices” (Louisiana Tech Research Corporation, priority 2014, dated 2019)

Assays:
E. Coli bacteria [1] = assay: bacterial plates, antibiotic susceptibility gel diffusion testing; type: cell-based; conditions: 1 mg amounts; for kill zone on bacterial plate, cooked powder: antibiotic powder heated to 220 Celsius for 5 minutes
Experimental: (§1) In another example embodiment (example 3), PLA pellets were run through a filament extruder with 2% gentamicine powder at 175 Celsius. The resulting filament was tested on bacterial plates using antibiotic susceptibility gel diffusion testing using E. Coli bacteria. A kill zone was observed around the filament. […] The filament is run through a 3D printer head nozzle at 220 Celsius and 300 um fibers are created. […] It should be noted that bacterial plates and cultures were carried out as close to Kirby-Bauer ISO standards as possible being that of 100 mm Mueller Hinton plates or Mueller Hinton broths. E. Coli colonies (Sigma Aldrich Vitroid Origin) used to seed plates were taken from 0.5 McFarland standard solutions in 50 uL quantities. Control plates and broths were used. Control PLA printed discs, beads, stents and catheters were used to compare against antibiotic filaments. Molded bone cement beads, discs and filaments made of Ortho-Right LV bone cements were used as comparison for no antibiotic and antibiotic controls.

E. Coli bacteria [2] = assay: bacterial broth culture; type: cell-based; conditions: 1 mg amounts; for bacterial growth in broth culture, cooked powder: antibiotic powder heated to 220 Celsius for 5 minutes
Experimental: as §1

NC[C@H]1O[C@H](O[C@H]2[C@H](O)[C@@H](O[C@H]3O[C@H](CO)[C@@H](O)[C@H](N)[C@H]3O)[C@H](N)C[C@@H]2N)[C@H](N)C[C@@H]1O [Tobramycin] was tested, and the “kill zone on bacterial plate, cooked powder” value (E. Coli bacteria [1]) was “kill zones”, the “kill zone on bacterial plate, uncooked control powder” value (E. Coli bacteria [1]) was “kill zones” and the “bacterial growth in broth culture, cooked powder” value (E. Coli bacteria [2]) was “no bacterial growth”. The “bacterial growth in broth culture, uncooked control powder” value (E. Coli bacteria [2]) was “no bacterial growth”.
With Gentamicin the “kill zone on bacterial plate, cooked powder” value (E. Coli bacteria [1]) was “kill zones”, the “kill zone on bacterial plate, uncooked control powder” value (E. Coli bacteria [1]) was “kill zones” and the “bacterial growth in broth culture, cooked powder” value (E. Coli bacteria [2]) was “no bacterial growth”. For the same compound, the “bacterial growth in broth culture, uncooked control powder” value (E. Coli bacteria [2]) was “no bacterial growth”.
